Experimental data taken from paper PMC12856317, “A reversible feedback mechanism regulating mitochondrial heme synthesis” (The Journal of Biological Chemistry, 2025).

Assays:
Assay in all cases: Isothermal titration calorimetry, hemin-protein interaction
Type in all cases: binding
Details in all cases: ITC, 25 °C
[1] = target: T1, human ALAS2 ΔN (residues 75–587) (Homo sapiens, UniProt P22557)
T1 construct: a truncation without HRM3 (ΔN, residues 75–587); His6-SUMO (N, cleaved yes); made in house; host or cells: Escherichia coli BL21-Codon Plus (DE3)-RIL
T1 sequence (P22557 75-587): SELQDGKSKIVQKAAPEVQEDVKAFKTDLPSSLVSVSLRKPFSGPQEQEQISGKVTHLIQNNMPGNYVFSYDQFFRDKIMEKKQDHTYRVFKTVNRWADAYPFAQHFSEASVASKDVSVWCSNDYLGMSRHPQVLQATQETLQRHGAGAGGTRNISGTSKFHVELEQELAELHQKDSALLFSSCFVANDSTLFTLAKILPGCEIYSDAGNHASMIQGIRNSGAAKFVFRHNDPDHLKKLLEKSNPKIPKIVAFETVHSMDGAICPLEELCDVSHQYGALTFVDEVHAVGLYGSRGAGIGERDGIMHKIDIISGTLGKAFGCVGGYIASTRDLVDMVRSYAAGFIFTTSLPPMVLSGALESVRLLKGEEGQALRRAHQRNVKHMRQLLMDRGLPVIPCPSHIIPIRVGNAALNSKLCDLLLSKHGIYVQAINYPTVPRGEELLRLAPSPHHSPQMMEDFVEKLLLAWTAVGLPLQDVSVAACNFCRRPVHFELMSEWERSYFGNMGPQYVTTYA
Method: (§1) Binding curves of the hemin-protein interaction were determined using Nano-ITC instrument (TA instruments) at 25 °C. Hemin was dissolved in 1 M NaOH and autoclaved to prepare a stock solution of 746 μM, ε385nm = 58,440 M^−1 cm^−1. The stock solution was diluted to 1.5 μM in titration buffer containing 25 mM Hepes, pH 7, 150 mM KCl, and 0.5 mM TCEP. Protein samples were dialyzed into the titration buffer and diluted to a final concentration of 40 μM. Fixed volumes of protein were injected at 200-s intervals into the cell containing hemin. An A + B hetero-association model was used to determine the thermodynamic parameters for each variant. Data were integrated and analyzed using NITPIC and SEDPHAT and visualized using GUSSI ([71], [72], [73]).

[2] = target: T2, WT human ALAS2 (residues 54–587) (Homo sapiens, UniProt P22557)
T2 construct: His6-SUMO (N, cleaved yes); made in house; host or cells: Escherichia coli BL21-Codon Plus (DE3)-RIL
T2 sequence (P22557 54-587): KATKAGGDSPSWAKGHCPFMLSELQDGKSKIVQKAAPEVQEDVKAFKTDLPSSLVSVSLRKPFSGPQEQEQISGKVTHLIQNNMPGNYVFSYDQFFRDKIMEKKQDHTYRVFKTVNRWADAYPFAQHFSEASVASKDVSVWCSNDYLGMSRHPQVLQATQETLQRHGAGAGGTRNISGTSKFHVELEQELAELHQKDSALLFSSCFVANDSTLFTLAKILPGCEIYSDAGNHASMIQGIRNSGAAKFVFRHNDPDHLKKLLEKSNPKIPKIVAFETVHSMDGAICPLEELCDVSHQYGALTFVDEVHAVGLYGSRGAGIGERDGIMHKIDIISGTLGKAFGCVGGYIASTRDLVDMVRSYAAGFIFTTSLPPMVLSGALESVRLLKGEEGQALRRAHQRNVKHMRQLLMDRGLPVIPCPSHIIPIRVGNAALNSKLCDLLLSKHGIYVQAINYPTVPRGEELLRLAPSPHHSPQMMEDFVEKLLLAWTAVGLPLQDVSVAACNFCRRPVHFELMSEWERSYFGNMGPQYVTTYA
Method: as §1

[3] = target: T3, human ALAS2 ΔC (residues 54–547) (Homo sapiens, UniProt P22557)
T3 construct: a truncation without the C-terminal CXXC motif (ΔC, residues 54–547); His6-SUMO (N, cleaved yes); made in house; host or cells: Escherichia coli BL21-Codon Plus (DE3)-RIL
T3 sequence (P22557 54-547): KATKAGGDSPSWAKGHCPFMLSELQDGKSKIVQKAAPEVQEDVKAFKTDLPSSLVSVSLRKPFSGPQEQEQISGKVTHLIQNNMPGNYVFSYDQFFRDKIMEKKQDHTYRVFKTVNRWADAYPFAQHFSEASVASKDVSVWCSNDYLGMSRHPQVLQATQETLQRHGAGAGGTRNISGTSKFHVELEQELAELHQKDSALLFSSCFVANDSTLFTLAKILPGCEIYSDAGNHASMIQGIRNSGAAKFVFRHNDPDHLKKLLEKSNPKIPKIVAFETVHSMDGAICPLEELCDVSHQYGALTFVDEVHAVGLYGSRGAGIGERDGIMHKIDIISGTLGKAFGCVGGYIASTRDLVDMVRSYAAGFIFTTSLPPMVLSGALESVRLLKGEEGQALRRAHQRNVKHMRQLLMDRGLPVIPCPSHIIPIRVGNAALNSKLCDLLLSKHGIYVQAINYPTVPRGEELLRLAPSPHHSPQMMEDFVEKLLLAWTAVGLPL
Method: as §1

[4] = 95% confidence interval in brackets

ΔG [1]: -8.50 kcal/mol | ΔS [1]: −3.35 kcal/mol K | Kd [1, 4]: 589 nM | ΔH [1, 4]: −1006 [−1432, −810] kcal/mol | ΔG [2]: -9.05 kcal/mol | ΔS [2]: −1.25 kcal/mol K | Kd [2, 4]: 232 nM | ΔH [2, 4]: −382 [−440, −342] kcal/mol | Kd ([2]; 95% confidence interval in brackets, listed as heme): ~230 nM | ΔG [3]: -8.94 kcal/mol | ΔS [3]: −1.80 kcal/mol K | Kd [3, 4]: 279 nM | ΔH [3, 4]: −544 [−604, −499] kcal/mol
Substance: ferric chloride heme [hemin]
